From patent publication US20070128217A1 (priority 2003, published 2007)

How the values were obtained:
[1] = test system: control sera (pooled serum of ten healthy LUMC hospital workers; commercial negative donor pooled serum from the Dutch bloodbank); type: binding, human; parameters: Binding of Control serum LUMC to linear peptides / Binding of Control serum Blood-bank to linear peptides / Binding of Control serum LUMC to looped peptides / Binding of Control Serum Blood-Bank to Looped peptides / Binding of Control serum LUMC to linear peptides of the protein M of SARS-CoV Urbani / Binding of Control serum Blood-bank to linear peptides of the protein M of SARS-CoV Urbani / Binding of Control serum LUMC to looped peptides of the protein M of SARS-CoV Urbani / Binding of Control Serum Blood-Bank to Looped peptides of the protein M of SARS-CoV Urbani: unit not given here
[2] = test system: rabbit serum obtained by immunizing a rabbit with the SARS-CoV strain Frankfurt 1; type: binding; parameters: Binding of a rabbit serum to linear peptides / Binding of a rabbit serum to looped peptides / Rabbit serum linear peptides / Rabbit serum looped peptides / Binding of a rabbit serum to linear peptides of protein N of SARS-CoV Urbani (Rabbit serum linear peptides) / Binding of a rabbit serum to looped/cyclic peptides of protein N of SARS-CoV Urbani (Rabbit serum looped peptides): unit not given here
[3] = test system: recombinant human anti-SARS-CoV antibody 03-018; type: binding; parameters: Binding of antibody 03-018 to linear peptides of the N protein of SARS-CoV Urbani / Binding of antibody 03-018 to looped/cyclic peptides of the N protein of SARS-CoV Urbani: unit not given here
[4] = test system: antibodies in sera from SARS patients (sera 1a, 1b, 2, 6, 37, 62, London, SARS-yellow, SARS-green); type: binding, human; parameters: Binding of serum 6 to linear peptides of protein X1 of SARS-CoV Urbani / Binding of serum 37 to linear peptides of protein X1 of SARS-CoV Urbani / Binding of serum 6 to looped/cyclic peptide (PEPSCAN-ELISA) / Binding of serum 37 to looped/cyclic peptide (PEPSCAN-ELISA) / Binding of serum 37 to looped/cyclic peptides of protein X1 of SARS-CoV Urbani / Binding of serum 6 to linear peptides of protein X2 / Binding of serum 37 to linear peptides of protein X2 / Binding of serum 37 to looped/cyclic peptides of protein X2 of SARS-CoV Urbani / Binding of serum 6 to linear peptides of protein M of SARS-CoV Urbani / Binding of serum 37 to linear peptides of protein M of SARS-CoV Urbani / Binding of serum 6 to looped/cyclic peptides of protein M of SARS-CoV Urbani / Binding of serum 37 to looped/cyclic peptides of protein M of SARS-CoV Urbani / Binding of serum 6 to linear peptides of protein X3 of SARS-CoV Urbani / Binding of serum 37 to linear peptides of protein X3 of SARS-CoV Urbani / Binding of serum 37 to looped/cyclic peptides of protein X3 of SARS-CoV Urbani / Binding of serum 6 to linear peptides of protein X4 of SARS-CoV Urbani / Binding of serum 37 to linear peptides of protein X4 of SARS-CoV Urbani / Binding of serum 37 to looped/cyclic peptides of protein X4 of SARS-CoV Urbani / Binding of serum 6 to linear peptides of protein X5 of SARS-CoV Urbani / Binding of serum 37 to linear peptides of protein X5 of SARS-CoV Urbani / Binding of serum 37 to looped/cyclic peptides of protein X5 of SARS-CoV Urbani / Binding of serum 6 to linear peptides of protein N of SARS-CoV Urbani / Binding of serum 37 to linear peptides of protein N of SARS-CoV Urbani / Binding of serum 6 to linear peptide (PEPSCAN-ELISA) / Binding of serum 1a to looped/cyclic peptides of protein N of SARS-CoV Urbani / Binding of serum 1b to looped/cyclic peptides of protein N of SARS-CoV Urbani / Binding of serum 2 to looped/cyclic peptides of protein N of SARS-CoV Urbani / Binding of serum 6 to looped/cyclic peptides of protein N of SARS-CoV Urbani / Binding of serum 37 to looped/cyclic peptides of protein N of SARS-CoV Urbani / Binding of serum 62 to looped/cyclic peptides of protein N of SARS-CoV Urbani / Binding of serum London to looped/cyclic peptides of protein N of SARS-CoV Urbani / Binding of serum SARS-green to looped/cyclic peptides of protein N of SARS-CoV Urbani: unit not given here

| Sequence | Binding of antibody 03-018 to linear peptides of the N protein of SARS-CoV Urbani [3] | Binding of antibody 03-018 to looped/cyclic peptides of the N protein of SARS-CoV Urbani [3] | Binding of serum 1a to linear peptides of protein N of SARS-CoV Urbani [4] | Binding of serum 1a to looped/cyclic peptides of protein N of SARS-CoV Urbani [4] | Binding of serum 1b to linear peptides of protein N of SARS-CoV Urbani [4] | Binding of serum 1b to looped/cyclic peptides of protein N of SARS-CoV Urbani [4] | Binding of serum 2 to linear peptides of protein N of SARS-CoV Urbani [4] | Binding of serum 2 to looped/cyclic peptides of protein N of SARS-CoV Urbani [4] | Binding of serum 6 to linear peptides of protein N of SARS-CoV Urbani [4] | Binding of serum 6 to looped/cyclic peptides of protein N of SARS-CoV Urbani [4] | Binding of serum 37 to linear peptides of protein N of SARS-CoV Urbani [4] | Binding of serum 37 to looped/cyclic peptides of protein N of SARS-CoV Urbani [4] | Binding of serum 62 to linear peptides of protein N of SARS-CoV Urbani [4] | Binding of serum 62 to looped/cyclic peptides of protein N of SARS-CoV Urbani [4] | Binding of serum London to linear peptides of protein N of SARS-CoV Urbani [4] | Binding of serum London to looped/cyclic peptides of protein N of SARS-CoV Urbani [4] | Binding of serum SARS-green to linear peptides of protein N of SARS-CoV Urbani [4] | Binding of serum SARS-green to looped/cyclic peptides of protein N of SARS-CoV Urbani [4] | Binding of serum SARS-yellow to linear peptides of protein N of SARS-CoV Urbani [4] | Binding of serum SARS-yellow to looped/cyclic peptides of protein N of SARS-CoV Urbani [4] | also measured |
| --- | --- | --- | --- | --- | --- | --- | --- | --- | --- | --- | --- | --- | --- | --- | --- | --- | --- | --- | --- | --- | --- |
| DNNQNGGRNGARPKQ | 0.2 | 0.3 | 0.2 | 0.4 | 0.1 | 0.2 | 0.3 | 0.4 | 0.1 | 0.3 | 0.6 | 0.6 | 0.7 | 0.4 | 0.5 | 0.4 | 0.6 | 0.4 | 0.6 | 0.4 | Binding of Control Serum Blood-Bank to Looped peptides [1]: 0.7; Binding of Control serum Blood-bank to linear peptides [1]: 0.8; Binding of Control serum LUMC to linear peptides [1]: 0.6; Binding of Control serum LUMC to looped peptides [1]: 0.6; Binding of a rabbit serum to linear peptides of protein N of SARS-CoV Urbani (Rabbit serum linear peptides) [2]: 0.1; Binding of a rabbit serum to looped/cyclic peptides of protein N of SARS-CoV Urbani (Rabbit serum looped peptides) [2]: 0.4 |
| DNVILLNKHIDAYKT | 0.1 | 0.2 | 0.2 | 0.4 | 0.1 | 0.3 | 0.2 | 0.4 | 0.1 | 0.2 | 0.6 | 0.7 | 0.6 | 0.7 | 0.5 | 0.5 | 0.2 | 0.3 | 0.6 | 0.8 | Control Serum Blood-Bank Looped peptides [1]: 0.7; Control serum Blood-bank linear peptides [1]: 0.5; Control serum LUMC linear peptides [1]: 0.6; Control serum LUMC looped peptides [1]: 0.7; Binding of a rabbit serum to linear peptides of protein N of SARS-CoV Urbani (Rabbit serum linear peptides) [2]: 0.1; Binding of a rabbit serum to looped/cyclic peptides of protein N of SARS-CoV Urbani (Rabbit serum looped peptides) [2]: 0.6 |
| DQIGYYRRATRRVRG | 0.1 | 0.3 | 0.2 | 0.3 | 0.1 | 0.2 | 0.3 | 0.5 | 0.2 | 0.3 | 0.7 | 0.9 | 0.6 | 0.8 | 0.5 | 0.5 | 0.4 | 0.6 | 0.6 | 0.7 | Binding of Control Serum Blood-Bank to Looped peptides [1]: 0.8; Binding of Control serum Blood-bank to linear peptides [1]: 0.8; Binding of Control serum LUMC to linear peptides [1]: 0.7; Binding of Control serum LUMC to looped peptides [1]: 0.7; Recognition of the peptide by the rabbit serum [2]: recognized |
